According to patent US7989454B2, “Leukotriene B4 inhibitors” (Hoffmann-La Roche Inc., priority 2002, dated 2011):

What follows are compounds tested on BLT1 and BLT2 receptors (assay: Ca2+ flux assay for LTB4 antagonist assay (HL-60 FLIPR)). Settings: retinoic acid induced HL-60 cells endogenously expressing BLT1 and BLT2; inhibition of LTB4-induced Ca2+ flux; 30 min compound preincubation; read-out: LTB4 antagonism (HL-60 FLIPR).
Format: cell-based, Human
Description: Ca^2+ Flux Assay for LTB4 Antagonist Assay
Human leukemia HL-60 cells endogenously expressing BLT1 and BLT2 receptors were cultured in RPMI-1640 medium supplemented with 20% fetal bovine serum, 2 mM glutamine, 100 U/mL penicillin and 100 ug/mL streptomycin.
Seventy two hours prior to experiment cells are counted using ViaCount reagent, centrifuged and resuspended at 2.0×10^5 cells/ml density with the complete growth media containing 1 μM retinoic acid (Sigma).
On a day of the experiment loading buffer (Calcium-3 Assay Kit, Molecular Devices) was prepared by dissolving the contents of one vial (Express Kit) into 500 ml Hank's Balanced Salt Solution containing 20 mM HEPES and 5 mM probenecid. Equal volume of the loading buffer was mixed with the replacement buffer (Hank's Balanced Salt Solution containing 20 mM HEPES, 0.05% BSA and 5 mM probenecid). Retinoic acid induced HL-60 cells were counted using ViaCount reagent, centrifuged and resuspended at 2.0×10^6 cells/mL density with the loading buffer/replacement buffer, dispensed into 384 well black/clear microplates (Falcon)(25 μL/well) and placed in a 37° C./5% CO2 incubator for 1 hour.
During the incubation, test compounds were prepared at 6× the desired concentration in HBSS/20 mM HEPES/0.05% BSA as well as LTB4 (Biomol) was prepared at 2.2× concentration in HBSS/20 mM HEPES/0.5% BSA buffer.
After the incubation, both the cell and compound plates were brought to the FLIPR and 5 μL of the diluted compounds were transferred to the cell plates by the FLIPR. Plates were then incubated for 30 min at room temperature. After the ½ hour incubation, plates were returned to the FLIPR and 25 μL of 2.2×LTB4 was added to the cell plates. During the assay, fluorescence readings were taken simultaneously from all 384 wells of the cell plate every 1.5 seconds. Five readings were taken to establish a stable baseline, then 25 μL (LTB4) of sample was rapidly and simultaneously added to each well of the cell plate. The fluorescence was continuously monitored before, during and after sample addition for a total elapsed time of 100 seconds. Responses (increase in peak fluorescence) in each well following agonist addition was determined. The initial fluorescence reading from each well, prior to ligand stimulation, was used a zero baseline value for the data from that well. The responses are expressed as % inhibition of the neutral control (neural control: wells that received buffer plus DMSO but no test compound).

SMILES | IC50
CC1CCCN(C(=O)c2cc(OCCCCCCc3cccc(OCCCC(=O)O)c3CCC(=O)O)cc(-c3ccc4c(c3)OCO4)c2)C1 (stereo not shown) [Example 46, 4-[3-{6-[3-Benzo[1,3]dioxol-5-yl-5-(3-methyl-piperidine-1-carbonyl)-phenoxy]-hexyl}-2-(2-carboxy-ethyl)-phenoxy]-butyric acid] | 7.46 nM
O=C(O)CCCOc1cccc(CCCCCCOc2cc(C(=O)NC3CC3)cc(-c3ccc4c(c3)OCO4)c2)c1CCC(=O)O [Example 51, 4-[3-[6-(3-Benzo[1,3]dioxol-5-yl-5-cyclopropylcarbamoyl-phenoxy)-hexyl]-2-(2-carboxy-ethyl)-phenoxy]-butyric acid] | 0.08 nM
CCN(C)C(=O)c1cc(OCCCCCCc2cccc(OCCCC(=O)O)c2CCC(=O)O)cc(-c2ccc3c(c2)OCO3)c1 [Example 73, 4-[3-{6-[3-Benzo[1,3]dioxol-5-yl-5-(ethyl-methyl-carbamoyl)-phenoxy]-hexyl}-2-(2-carboxy-ethyl)-phenoxy]-butyric acid] | 0.25 nM
NC(=O)c1cc(OCCCCCCc2cccc(OCCCC(=O)O)c2CCC(=O)O)cc(-c2ccc3c(c2)OCO3)c1 [Example 55, 4-[3-[6-(3-Benzo[1,3]dioxol-5-yl-5-carbamoyl-phenoxy)-hexyl]-2-(2-carboxy-ethyl)-phenoxy]-butyric acid] | 0.2 nM
CN1CCCN(C(=O)c2cc(OCCCCCCc3cccc(OCCCC(=O)O)c3CCC(=O)O)cc(-c3ccc4c(c3)OCO4)c2)CC1 [Example 36, 4-[3-{6-[3-Benzo[1,3]dioxol-5-yl-5-(4-methyl-[1,4]diazepane-1-carbonyl)-phenoxy]-hexyl}-2-(2-carboxy-ethyl)-phenoxy]-butyric acid] | 0.14 nM
Cc1ccc(-c2cc(OCCCCCCc3cccc(OCCCC(=O)O)c3CCC(=O)O)cc(C(=O)N(C)C)c2)cc1 [Example 112, 4-{2-(2-Carboxy-ethyl)-3-[6-(5-dimethylcarbamoyl-4′-methyl-biphenyl-3-yloxy)-hexyl]-phenoxy}-butyric acid] | 0.24 nM
O=C(O)CCCOc1cccc(CCCCCCOc2cc(C(=O)NCc3ccccc3)cc(-c3c(F)cccc3F)c2)c1CCC(=O)O [Example 5, 4-[3-[6-(5-Benzylcarbamoyl-2′,6′-difluoro-biphenyl-3-yloxy)-hexyl]-2-(2-carboxy-ethyl)-phenoxy]-butyric acid] | 299 nM
Cc1cscc1-c1cc(OCCCCCCc2cccc(OCCCC(=O)O)c2CCC(=O)O)cc(C(=O)N2CCN(C)CC2)c1 [Example 24, 4-(2-(2-Carboxy-ethyl)-3-{6-[3-(4-methyl-piperazine-1-carbonyl)-5-(4-methyl-thiophen-3-yl)-phenoxy]-hexyl}-phenoxy)-butyric acid] | 47.3 nM
O=C(O)CCCOc1cccc(CCCCCCOc2cc(C(=O)N3CCNCC3)cc(-c3ccc4c(c3)OCO4)c2)c1CCC(=O)O [Example 44, 4-[3-{6-[3-Benzo[1,3]dioxol-5-yl-5-(piperazine-1-carbonyl)-phenoxy]-hexyl}-2-(2-carboxy-ethyl)-phenoxy]-butyric acid] | 0.08 nM
CN(C)C(=O)c1cc(OCCCCCCc2cccc(OCCCC(=O)O)c2CCC(=O)O)cc(-c2ccsc2)c1 [Example 85, 4-{2-(2-Carboxy-ethyl)-3-[6-(3-dimethylcarbamoyl-5-thiophen-3-yl-phenoxy)-hexyl]-phenoxy}-butyric acid] | 0.28 nM
Cc1ccc(-c2cc(OCCCCCCc3cccc(OCCCC(=O)O)c3CCC(=O)O)cc(C(=O)N(C)C)c2)cc1F [Example 105, 4-{2-(2-Carboxy-ethyl)-3-[6-(5-dimethylcarbamoyl-3′-fluoro-4′-methyl-biphenyl-3-yloxy)-hexyl]-phenoxy}-butyric acid] | 0.79 nM
O=C(O)CCCOc1cccc(CCCCCCOc2cc(C(=O)N3CCCCC3)cc(-c3ccc4c(c3)OCO4)c2)c1CCC(=O)O [Example 42, 4-[3-{6-[3-Benzo[1,3]dioxol-5-yl-5-(piperidine-1-carbonyl)-phenoxy]-hexyl}-2-(2-carboxy-ethyl)-phenoxy]-butyric acid] | 0.21 nM
CN1CCN(C(=O)c2cc(OCCCCCCc3cccc(OCCCC(=O)O)c3CCC(=O)O)cc(-c3ccccc3)c2)CC1 [Example 28, 4-(2-(2-Carboxy-ethyl)-3-{6-[5-(4-methyl-piperazine-1-carbonyl)-biphenyl-3-yloxy]-hexyl}-phenoxy)-butyric acid] | 0.22 nM
CN(C)C(=O)c1cc(OCCCCCCc2cccc(OCCCC(=O)O)c2CCC(=O)O)cc(-c2ccc3c(c2)OCO3)c1 [Example 53, 4-[3-[6-(3-Benzo[1,3]dioxol-5-yl-5-dimethylcarbamoyl-phenoxy)-hexyl]-2-(2-carboxy-ethyl)-phenoxy]-butyric acid] | 0.1 nM
CN(C)C(=O)c1cc(C#CCCCCCc2cccc(OCCCC(=O)O)c2CCC(=O)O)cc(-c2ccc(O)cc2)c1 [Example 122, 4-{2-(2-Carboxy-ethyl)-3-[7-(5-dimethylcarbamoyl-4′-hydroxy-biphenyl-3-yl)-hept-6-ynyl]-phenoxy}-butyric acid] | 15.6 nM
CNC(=O)c1cc(OCCCCCCc2cccc(OCCCC(=O)O)c2CCC(=O)O)cc(-c2ccc3c(c2)OCCO3)c1 [Example 77, 4-(2-(2-Carboxy-ethyl)-3-{6-[3-(2,3-dihydro-benzo[1,4]dioxin-6-yl)-5-methylcarbamoyl-phenoxy]-hexyl}-phenoxy)-butyric acid] | 2.41 nM
CN1CCN(C(=O)c2cc(CCCCCCCc3cccc(OCCCC(=O)O)c3CCC(=O)O)cc(-c3ccccc3)c2)CC1 [Example 118, 4-(2-(2-Carboxy-ethyl)-3-{7-[5-(4-methyl-piperazine-1-carbonyl)-biphenyl-3-yl]-heptyl}-phenoxy)-butyric acid] | 19.5 nM
O=C(O)CCCOc1cccc(CCCCCCOc2cc(C(=O)NC3CCC3)cc(-c3cccc(F)c3)c2)c1CCC(=O)O [Example 67, 4-{2-(2-Carboxy-ethyl)-3-[6-(5-cyclobutylcarbamoyl-3′-fluoro-biphenyl-3-yloxy)-hexyl]-phenoxy}-butyric acid] | 52.2 nM
O=C(O)CCCOc1cccc(CCCCCCOc2cc(C(=O)NC3CCC3)cc(-c3ccc4c(c3)OCO4)c2)c1CCC(=O)O [Example 61, 4-[3-[6-(3-Benzo[1,3]dioxol-5-yl-5-cyclobutylcarbamoyl-phenoxy)-hexyl]-2-(2-carboxy-ethyl)-phenoxy]-butyric acid] | 0.21 nM
